Experimental data reported in patent EP0071374A1, “Nitrosourea derivatives having anti-tumour and anti-bacterial activity” (KUREHA KAGAKU KOGYO KABUSHIKI KAISHA, priority 1981, dated 1983).

What was measured:
L-1210 leukemia = assay: Anti-tumour effect against L-1210 leukemia on mouse; type: in vivo; conditions: T/C x 100 of average survival days; dose 10 mg/kg intraperitoneally once a day for 5 days, starting 24 hours after transplantation of 1 x 10^5 cells/animal
Description: Anti-tumour effect against L-1210 leukemia on mouse: • The successively cultured L-1210 leukemia cells in the ascites of a mouse were transplanted intraperitoneally to a group of the mouse at a rate of 1 x 10^5 cells/animal, and after 24 hours of the transplantation, a solution of each of the present compounds dissolved in an aqueous physiological saline solution was intraperitoneally administered to the group of the mouse once a day for 5 days running. By observing the state of the mice, the average survival days of the administered mice (T) and those of the control group (C) were obtained to calculate the prolongation ratio of the mouse's life (T/C x 100).

V-7 tumour = assay: Anti-tumour effect against V-7 tumour on a rabbit; type: in vivo; conditions: survival days vs not-administered control rabbits; dose 10 mg/kg on the 7th day and 11th day of the transplantation
Description: Anti-tumour effect against V-7 tumour on a rabbit: • The cancer cells prepared by extirpating the solid tumour transplated and proliferated in the femoral part of a rabbit, cutting finely and having passed through stainless steel mesh of Tyler standard mesh of ? 200 were transplanted to the thinner muscle of the femoral part of a rabbit by using an injector at a rate of 1.5 x 10^7 cells/animal. On the 7th day and llth day of the transplantation, the present compound was administered to the transplanted rabbit. The prolongation ratio of the rabbit was calculated by the comparison of the survival days of the administered rabbits and the not-administered control rabbits.

Escherichia coli = assay: Antibacterial activity in vitro, agar plate dilution; type: cell-based; design: key: + means the degree of inhibition of the growth of E. Coli; the larger the number of +, the larger the inhibition; ++: + means the degree of inhibition of the growth of E. Coli; the larger the number of +, the larger the inhibition; +++: + means the degree of inhibition of the growth of E. Coli; the larger the number of +, the larger the inhibition; - means that no inhibition of the growth of E. coli was observed; conditions: 18 hours at 37°C, Heart infusion agar
Description: Antibacterial activity: • i) A series of 2 times dilution of aqueous solution of each of the present compounds were prepared, and a plate culture medium was prepared by mixing each series with Heart infusion agar culture medium. A strain of Escherichia coli cultured in trypto-soy bouillon at 37°C for 18 hours was inoculated on the thus prepared culture medium, and after culturing for 18 hours at 37°C, the degree of proliferation of the inoculated bacteria was observed, the inoculum being a plutinum loop-full.

[1] = Side effects: nephrotoxicity (albuminurea); type: in vivo, JCL-ICR mouse; conditions: orally 10 mg/kg once a day for 5 days; for Nephrotoxicity: albuminurea
Description: Side effects: • The side effects of the present compounds were examined using JCL-ICR mouse as the experimental animal.
Each of the present compounds was orally administered to a group of the mouse at a daily dose rate of 10 mg/kg once a day for 5 days running, the same procedure being carried out on the other group of the mouse by administering BCNU at the same rate.

Solubility in water = type: physicochemical

SMILES | Prolongation ratio (L-1210 leukemia) [%] | Prolongation ratio (V-7 tumour) [%] | degree of inhibition of the growth of E. coli (Escherichia coli; Diluted concentration 1/2) | degree of inhibition of the growth of E. coli (Escherichia coli; Diluted concentration 1/4) | degree of inhibition of the growth of E. coli (Escherichia coli; Diluted concentration 1/8) | degree of inhibition of the growth of E. coli (Escherichia coli; Diluted concentration 1) | Nephrotoxicity [1] | Solubility in Water (Solubility in water) | degree of albuminurea ([1]; result in words)
O=NN(CCCl)C(=O)NCC(O)CO (centres unmarked) [3-[3-(2-Chloroethyl)-3-nitrosoureido]-1,2-propanediol] | 420 | 215 | ++ | + | + | +++ | + (+ means that albuminurea was observed in one to two animals of the total ten animals.) | good | 
CCC(CO)(CO)NC(=O)N(CCCl)N=O [2-Ethyl-2-[3-(2-chloroethyl)-3-nitrosoureido]-1,3-propanediol] | 405 | 230 | ++ | + | + | +++ | + (+ means that albuminurea was observed in one to two animals of the total ten animals.) | good | 
CC(CO)(CO)NC(=O)N(CCCl)N=O [2-Methyl-2-[3-(2-chloroethyl)-3-nitrosoureido]-1,3-propanediol] | 410 | 205 | ++ | ++ | + | +++ | + (+ means that albuminurea was observed in one to two animals of the total ten animals.) | good | 
CC(NC(=O)N(CCCl)N=O)C(O)CO (centres unmarked) [3-[3-(2-Chloroethyl)-3-nitrosoureido]-1,2-butanediol] | 430 | 210 | ++ | + | + | +++ | + (+ means that albuminurea was observed in one to two animals of the total ten animals.) | good | 
O=NN(CCCl)C(=O)NCCCl [BCNU, 1,3-Bis(2-chloroethyl)-1-nitrosourea, reference compound] | 204 | 140 | + | - | - | + | +++ (+++ means that albuminurea was observed in eight to nine animals of the total ten animals.) | not soluble | severely
